This is an account of results in patent US12486250B2, “Muscarinic receptor 4 antagonists and methods of use” (Neurocrine Biosciences, Inc., priority 2019, dated 2025).

The target of one data set is T1, human M1 receptor (Homo sapiens, UniProt P11229).
T1 construct: expressed in transfected cells; host or cells: CHO cells
T1 sequence (P11229 1-460): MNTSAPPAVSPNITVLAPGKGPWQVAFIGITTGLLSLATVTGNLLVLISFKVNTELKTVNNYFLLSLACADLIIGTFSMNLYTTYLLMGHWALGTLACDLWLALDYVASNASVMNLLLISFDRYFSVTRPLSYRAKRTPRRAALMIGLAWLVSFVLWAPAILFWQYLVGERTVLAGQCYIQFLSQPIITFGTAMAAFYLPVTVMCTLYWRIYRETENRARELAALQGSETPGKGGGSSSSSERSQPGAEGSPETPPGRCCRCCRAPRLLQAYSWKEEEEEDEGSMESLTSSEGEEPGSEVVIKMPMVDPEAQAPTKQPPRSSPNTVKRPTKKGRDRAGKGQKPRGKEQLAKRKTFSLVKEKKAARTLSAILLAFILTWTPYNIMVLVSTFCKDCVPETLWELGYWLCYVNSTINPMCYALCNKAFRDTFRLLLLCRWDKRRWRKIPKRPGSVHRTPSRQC
Nature of the data set: Radioligand ([3H]N-methylscopolamine) binding assay, CHO cell membranes. To be noted: 1.5 nM tritiated N-methylscopolamine, 90 minutes at 37° C.; read-out: Binding affinity (Ki) M1. On the procedure:
(§1) Binding affinity (Ki) of compounds was measured by inhibition of radioligand binding to membranes from CHO cells expressing human M1, M2, M3, M4 and M5 receptors. Membranes were prepared by nitrogen cavitation and differential centrifugation as previously described (Hoare et al., Mol. Pharmacol. 2003 March; 63(3): 751-65). The radioligand employed was tritiated N-methylscopolamine, used at a concentration of 1.5 nM. A dose-response of twelve concentrations of compound was used, ranging from […]. The assay buffer was 50 mM HEPES, 100 mM NaCl, 5 mM MgCl2, 1 mM ethylenediaminetetraacetic acid, pH-adjusted to pH 7.4. Membranes, radioligand and compound were incubated together for 90 minutes at 37° C., in a total volume of 150 μL in a 96-well plate. Receptor-bound radioligand was then collected by harvesting the assay over glass fiber filters pretreated with polyethylenimine to trap the cell membranes, using rapid vacuum filtration. Harvesting and radioactivity counting was conducted as previously described (see, e.g., Hoare et al., Mol. Pharmacol. 2003 63(3):751-65); Erratum at Mol. Pharmacol. 2005 July; 68(1): 260).

A further data set concerns the target T2, human M3 receptor (Homo sapiens, UniProt P20309).
T2 construct: expressed in transfected cells; host or cells: CHO cells
The data set is described as above. The following applies: 1.5 nM tritiated N-methylscopolamine, 90 minutes at 37° C.; read-out: Binding affinity (Ki) M3. The procedure: as §1

Data set [1] in a line: Rat pharmacokinetics (IV and PO). In kind it is in vivo, male Sprague-Dawley rats. The following applies: male, Sprague-Dawley, plasma; for Vd: read-out: Vdss; for half-life: read-out: T½ (converted); for Tmax: read-out: Tmax range. On the procedure:
The pharmacokinetics of Compounds 1, 2, 3A, and 4A were assessed in male Sprague-Dawley rats following either intravenously (IV) or orally (PO) dosing. Sin-life portions of the studies were either conducted internally at Neurocrine Biosciences or contracted to Charles River Laboratories or Agilux Laboratories. All studies were performed according to good scientific principles and internal standard operating procedures (SOPs). However, the studies were exploratory in nature and were not conducted in accordance with the United States Food and Drug Administration (FDA) Good Laboratory Guidance (GLP) regulations.
Adult (8-9 weeks old) male rats were acclimated prior to dose administration. For dosing, rats were either dosed intravenously through the femoral vein or orally via oral gavage. Food and water were provided ad libitum during the acclimation period. The rats were maintained in a controlled temperature and humidity environment with a photoperiod with a 12 hour light to dark cycle. Rats were either dosed fed or fasted. In studies where the rats were fasted, rats were allowed access to food four hours post-dose.
For the IV bolus dose, compound was administered over a period of approximately 30 seconds using a 1 mL syringe via the femoral vein catheter. The IV dose was followed with a bolus of sterile saline (approximately 100 μL). For IV infusion doses, compound was administered using an IV infusion pump to deliver the total dose volume over 1 hour. Rats were connected to the infusion pump through catheter tubing that was connected to the femoral catheter prior to the infusion start. For the oral dose, compound was administered using flexible, polypropylene-shafted, silicone bulb shaped-tipped gavage (Instech Solomon plastic feeding tubes, 18 gauge×75 mm). Animals were periodically observed for eight hours following the dose administration for potential test article related effects.
Serial blood samples from IV and PO dosed rats (N=3 or 4) were collected out to 24 hours post-dose. For the time points up to 8 hours post dose, approximately 200 μL of whole blood was drawn from the jugular catheter or from the tail vein with a 1-mL syringe. The whole blood was transferred to a 600 μL Sarstedt collection tube that contained 1.2-2 mg EDTA-K3/mL of anticoagulant, gently mixed, and then centrifuged for 1.0 min at 13,000 rpm. Approximately 100 μL of plasma was aliquoted. Blood for the terminal time points at 24 hours were collected by […] with a syringe containing 1.6 mg EDTA-K3/mL of anticoagulant, transferred to an Eppendorf and immediately centrifuged for 1.0 min at 13,000 rpm. Approximately 300 μL of plasma was aliquoted. The aliquoted plasma samples were stored at −80° C. until analysis.
For IV and PO dose groups, descriptive pharmacokinetics were derived and evaluated based on the plasma concentrations from each individual rat. Pharmacokinetic parameters were determined using non-compartmental analysis (NCA) of plasma concentration-time profiles in Phoenix WinNonlin pharmacokinetic modeling software Professional (version 6.3; Pharsight Corporation). Nominal time was used for all timepoints unless otherwise indicated. Descriptive statistics (means, standard deviations and coefficient of variation) were also generated. Mean pharmacokinetic summaries of Compounds 1-4 following intravenous and PO dosing in Sprague Dawley rats were summarized in Tables 15 and 16.
Plasma samples of compounds 1, 2, 3A, and 4A were prepared by protein precipitation. Calibration standards and quality control plasma samples were prepared from the same lot of reference standard to quantify the concentration of the study samples. […]

Where [2] appears, read: IV infusion (1 hr), 2 mg/kg, HCl salt.
Setting [3] is: iv, 1 mg/kg, IV bolus, 1 mg/kg, HCl salt.
[4] abbreviates: iv, 1 mg/kg, IV bolus, HCl salt.
Where [5] appears, read: iv, 2 mg/kg, IV infusion (1 hr), 2 mg/kg, HCl salt.
Where [6] appears, read: iv, 2 mg/kg, IV infusion (1 hr), HCl salt.
Where [7] appears, read: po, 10 mg/kg, PO 10 mg/kg, 1% Tween-80 in water (suspension).
Where [8] appears, read: po, 10 mg/kg, PO 10 mg/kg, 10% PEG-400 in 0.5% MC (suspension).
[9] abbreviates: po, 10 mg/kg, PO 10 mg/kg, 10% PEG-400 in 0.5% MC in water (solution).
Setting [10] is: PO 10 mg/kg, 10% PEG-400 in 0.5% MC in water (solution).
Setting [11] is: iv, 2.5 mg/kg, IV bolus, HCl salt.
[12] abbreviates: po, 10 mg/kg, PO 10 mg/kg, 5% Tween-80 in 0.5% (w/v) MC in water (suspension).
Setting [13] is: po, 10 mg/kg, PO 10 mg/kg, 30% PG, 20% PEG-400, 0.5% MC in water (solution).

Like-named read-outs stand apart in the source and are kept apart here.

T2 sequence (P20309 whole entry): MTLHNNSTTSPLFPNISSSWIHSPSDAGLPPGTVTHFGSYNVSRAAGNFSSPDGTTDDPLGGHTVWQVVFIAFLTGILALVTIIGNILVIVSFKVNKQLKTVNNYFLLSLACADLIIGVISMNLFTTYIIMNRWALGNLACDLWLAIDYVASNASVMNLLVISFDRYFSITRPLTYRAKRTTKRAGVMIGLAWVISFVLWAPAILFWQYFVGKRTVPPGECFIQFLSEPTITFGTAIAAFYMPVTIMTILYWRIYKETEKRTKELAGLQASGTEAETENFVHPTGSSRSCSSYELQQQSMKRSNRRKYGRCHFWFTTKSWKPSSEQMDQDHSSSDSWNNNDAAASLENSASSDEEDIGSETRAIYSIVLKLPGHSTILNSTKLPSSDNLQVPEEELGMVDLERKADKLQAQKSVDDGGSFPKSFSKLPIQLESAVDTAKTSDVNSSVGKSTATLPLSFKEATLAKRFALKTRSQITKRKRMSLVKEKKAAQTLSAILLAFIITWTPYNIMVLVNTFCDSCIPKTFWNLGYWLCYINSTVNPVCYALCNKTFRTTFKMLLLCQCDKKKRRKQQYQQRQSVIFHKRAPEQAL

A word on the Ki: it is a dissociation constant, usually derived from enzyme kinetics or from competition with a known ligand. One may read the bioavailability as the share of a dose that reaches the circulation, judged against a reference dose that is usually intravenous. A low value points to little systemic uptake. The term AUC(0-inf) denotes the area under the concentration-time curve extrapolated to infinity. Usually AUC(0-t) stands for the area under the concentration-time curve up to a stated or last time point. A word on the Cmax: it is the highest concentration seen after dosing. One may read the Tmax as the time at which the peak concentration occurs. `C[C@@H]1CN(c2cnc(C(F)(F)F)cn2)C[C@H](C)N1C(=O)OCCC1CCN(Cc2ccccc2)CC1` [Compound 1, 2-(1-benzylpiperidin-4-yl)ethyl (2R,6S)-2,6-dimethyl-4-[5-(trifluoromethyl)pyrazin-2-yl]piperazine-1-carboxylate]: the Ki on human M1 receptor and on human M3 receptor was at least 1000 nM throughout. Also, the clearance in data set [1] (IV bolus, 1 mg/kg, HCl salt) was found to be 40.4 mL/min/kg; in data set [1] (setting [2]) it was 15.8 mL/min/kg. The Vd in data set [1] (IV bolus, 1 mg/kg, HCl salt) was found to be 28.2 L/kg; in data set [1] (setting [2]), 12.1 L/kg. This compound yielded a bioavailability in data set [1] (PO 10 mg/kg, 10% PEG-400 in 0.5% MC (suspension)) of 89.1%. For the same compound, the half-life in data set [1] (setting [3]) is 9.1 h; in data set [1] (setting [5]), 10.2 h. In addition, the AUC(0-inf) came out at 415 ng·h/mL in data set [1] (setting [4]) and 1680 ng·h/mL in data set [1] (setting [6]). Further, the AUC(0-t) in data set [1] (setting [4]) was 357 ng·h/mL; in data set [1] (setting [6]) it was 1780 ng·h/mL; in data set [1] (setting [7]), 3950 ng·h/mL; in data set [1] (setting [8]), 3180 ng·h/mL; in data set [1] (setting [9]), 3150 ng·h/mL. For the same compound, the Cmax in data set [1] (setting [7]) was 280 ng/mL; in data set [1] (setting [8]) it was 164 ng/mL; in data set [1] (setting [9]), 264 ng/mL. Besides, the Tmax was 1 h in data set [1] (setting [7]), 2 to 7.5 h in data set [1] (setting [8]) and 0.5 to 1 h in data set [1] (setting [9]).

`C[C@@H]1CN(c2cnc(C(F)(F)F)cn2)C[C@@H](C)N1C(=O)OCCC1CCN(Cc2ccccc2)CC1` [Compound 2, 2-(1-benzylpiperidin-4-yl)ethyl (2R,6R)-2,6-dimethyl-4-[5-(trifluoromethyl)pyrazin-2-yl]piperazine-1-carboxylate]: the inhibition constant (Ki) at human M1 receptor is at least 1000 nM. Further, the Ki at human M3 receptor was at least 1000 nM. For the same compound, in data set [1] (setting [2]), the clearance was determined as 44.9 mL/min/kg and the Vd came to 36 L/kg. The bioavailability in data set [1] (setting [10]) was 81.4%. Also, the half-life in data set [1] (setting [5]) is 11 h. Further, in data set [1] (setting [6]), the AUC(0-inf) was 747 ng·h/mL and the AUC(0-t) was 613 ng·h/mL. Further, in data set [1] (setting [9]), the AUC(0-inf) came to 3040 ng·h/mL, the AUC(0-t) worked out at 2190 ng·h/mL, the highest concentration (Cmax) is 130 ng/mL and the Tmax was in the range of 2 to 7.5 h. Also, the half-life in data set [1] (setting [9]) is 12.9 h.

Regarding `C[C@@H]1CN(c2ncc(C#N)cn2)C[C@H](C)N1C(=O)NCCC1CCN(Cc2ccccc2)CC1` [Compound 3A], in data set [1] (IV bolus, 2.5 mg/kg, HCl salt), the clearance turned out to be 47.5 mL/min/kg and the Vd is 4.37 L/kg. In addition, the bioavailability in data set [1] (PO 10 mg/kg, 30% PG, 20% PEG-400, 0.5% MC in water (solution)) is 43.7%. In addition, in data set [1] (iv, 2.5 mg/kg, IV bolus, 2.5 mg/kg, HCl salt), the half-life is 1.95 h. Besides, in data set [1] (setting [11]), the AUC(0-inf) worked out at 882 ng·h/mL and the AUC(0-t) is 854 ng·h/mL. In data set [1] (setting [12]), the AUC(0-inf) turned out to be 1150 ng·h/mL, the AUC(0-t) amounted to 1500 ng·h/mL, the Cmax turned out to be 205 ng/mL and the Tmax was 0.5 to 4 h. Also, in data set [1] (setting [12]), the half-life was 3.21 h. Also, in data set [1] (setting [13]), the AUC(0-inf) is 1540 ng·h/mL, the AUC(0-t) was 1400 ng·h/mL, the highest level (Cmax) was 247 ng/mL and the Tmax lay within 0.5 to 2 h. In addition, the half-life in data set [1] (setting [13]) was 3.65 h.

With `C[C@@H]1CN(c2cnc(C(F)(F)F)cn2)C[C@@H](C)N1C(=O)NCCC1CCN(Cc2ccccc2)CC1` [Compound 4A], in data set [1] (IV bolus, 1 mg/kg, HCl salt), the clearance was 56.6 mL/min/kg and the Vd came out at 16.1 L/kg. In addition, the bioavailability in data set [1] (setting [10]) was determined as 59.2%. Besides, in data set [1] (setting [3]), the half-life is 5.01 h. For the same compound, in data set [1] (setting [4]), the area under the curve AUC(0-inf) is 204 ng·h/mL and the AUC(0-t) is 288 ng·h/mL. Besides, in data set [1] (setting [12]), the total exposure AUC(0-inf) came out at 3500 ng·h/mL, the AUC(0-t) came out at 2530 ng·h/mL, the peak level (Cmax) was 231 ng/mL and the time of peak concentration (Tmax) lay within 1 to 8 h. For the same compound, the half-life in data set [1] (setting [12]) was 7.09 h. Also, in data set [1] (setting [9]), the area under the curve AUC(0-inf) was 1740 ng·h/mL, the AUC(0-t) is 1700 ng·h/mL, the Cmax came to 182 ng/mL and the time of peak concentration (Tmax) fell in the range of 0.5 to 2 h. Besides, the half-life in data set [1] (setting [9]) is 4.2 h.
